pIC50: −log10 of the molar value.
molecular target: T1, human plasma protein factor Xa (Homo sapiens, UniProt P00742); experiment: Factor Xa IC50 determination (cleavage of paranitroanilide substrate S-2765); assay type: biochemical; details: fXa 1 nM, S2765 100 μM, Tris buffered saline pH 7.4, room temperature
T1 construct: The human plasma protein factor Xa was purchased; purchased Haematologic Technologies (Essex Junction, Vt.); host or cells: human plasma
From the text: This example illustrates methods for evaluating the compounds of the invention, along with results obtained for such assays. The in vitro and in vivo Factor Xa isoform activities of the inventive compounds can be determined by various procedures known in the art, such as a test for their ability to inhibit the activity of the Factor Xa isoform. […] The IC50 value is the concentration (in nM) of the compound required to provide 50% inhibition of Factor Xa isoform.
An in vitro assay for detecting and measuring inhibition activity against Factor Xa is as follows:
IC50 and Ki Determinations:
The substrate S-2765 (Z-D-Arg-Gly-Arg-pNA.HCl) was obtained from Diapharma (West Chester, Ohio).
The human plasma protein factor Xa was purchased from Haematologic Technologies (Essex Junction, Vt.).
All assays, which are performed in 96-well microtiter plates, measure proteolytic activity of the enzyme (factor Xa) by following cleavage of paranitroanilide substrate. The assay buffer used for proteolytic assays was Tris buffered saline (20 mM Tris, 150 mM NaCl, 5 mM CaCl2, 0.1% Bovine serum albumin (BSA), 5% Dimethly Sulfoxide (DMSO) pH 7.4). In a 96-well microtiter plate, inhibitor was serially diluted to give a range of concentrations from 0.01 nM to 10 μM (final). Duplicate sets of wells were assayed and control wells without inhibitor were included. Enzyme was added to each well, (fXa concentration=1 nM), the plate was shaken for 5 seconds and then incubated for 5 minutes at room temperature. S2765 was added (100 μM final) and the plate was shaken for 5 seconds (final liquid volume in each well was 200 μl). The degree of substrate hydrolysis was measured at 405 nm on a Thermomax plate reader (Molecular Devices, Sunnyvale, Calif.) for 2 minutes. The initial velocities (mOD/min), for each range of inhibitor concentrations, were fitted to a four parameter equation using Softmax data analysis software. The parameter C, derived from the resulting curve-fit, corresponded to the concentration for half maximal inhibition (IC50).

T1 sequence (P00742 235-488 limits assumed): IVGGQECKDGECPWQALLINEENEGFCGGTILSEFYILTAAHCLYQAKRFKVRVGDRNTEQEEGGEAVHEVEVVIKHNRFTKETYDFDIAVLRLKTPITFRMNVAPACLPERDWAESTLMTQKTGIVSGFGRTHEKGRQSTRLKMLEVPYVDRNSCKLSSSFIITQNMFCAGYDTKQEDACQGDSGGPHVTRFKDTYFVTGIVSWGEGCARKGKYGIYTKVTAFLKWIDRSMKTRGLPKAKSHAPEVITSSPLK
T1 sequence (P00742 41-179 partner limits assumed): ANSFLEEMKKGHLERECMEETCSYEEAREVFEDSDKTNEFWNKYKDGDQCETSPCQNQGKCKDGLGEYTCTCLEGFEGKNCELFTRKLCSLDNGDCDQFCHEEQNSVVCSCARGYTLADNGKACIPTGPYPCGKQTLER

pIC50	Compound
≥ 7.00	O=C(Nc1ccc(-n2ccccc2=O)cc1)[C@H]1Cc2ccccc2CN1C(=O)Nc1ccc(F)cc1 [Example 47, (3R) N-[4-(2-pyridon-1-yl)phenyl]-2N-(4-fluorophenylaminocarbonyl)-1,2,3,4-tetrahydroisoquinoline-3-carboxamide]
≥ 7.00	O=C(Nc1ccc(-n2ccccc2=O)cc1F)[C@H]1Cc2ccccc2CN1C(=O)Nc1ccc(Cl)cc1 [Example 38, (3R) N-[4-(2-pyridon-1-yl)-2-fluorophenyl]-2N-(4-chlorophenylaminocarbonyl)-1,2,3,4-tetrahydroisoquinoline-3-carboxamide]
≥ 7.00	O=C(Nc1ccc(-n2ccccc2=O)cc1)[C@H]1Cc2ccccc2CN1C(=O)Nc1ccc(Cl)cc1 [Example 36, (3R) N-[4-(2-pyridon-1-yl)phenyl]-2N-(4-chlorophenylaminocarbonyl)-1,2,3,4-tetrahydroisoquinoline-3-carboxamide]
6.30 to 7.00	CN1CCN(c2ccc(NC(=O)[C@H]3Cc4ccccc4CN3C(=O)Nc3ccc(Cl)cc3)cc2)C(=O)C1 [Example 45, (3R) N-[4-(4-methyl-2-piperazinon-1-yl)phenyl]-2N-(4-chlorophenylaminocarbonyl)-1,2,3,4-tetrahydroisoquinoline-3-carboxamide]
≥ 7.00	CN1CCCN(c2ccc(NC(=O)[C@H]3Cc4ccccc4CN3C(=O)Nc3ccc(Cl)s3)cc2)CC1 [Example 49, (3R) N-[4-(4-methyl-homopiperazin-1-yl)phenyl]-2N-[5-(2-chlorothiophene)aminocarbonyl]-1,2,3,4-tetrahydroisoquinoline-3-carboxamide]
≥ 7.00	O=C([C@H]1Cc2ccccc2CN1C(=O)Nc1ccc(Cl)cc1)N1CCC(n2ccccc2=O)CC1 [Example 43, (3R) 4-(2-pyridon-1-yl)piperidin-1-yl 2N-(4-chlorophenylaminocarbonyl)-1,2,3,4-tetrahydroisoquinoline-3-carboxamide]
≥ 7.00	O=C([C@H]1Cc2ccccc2CN1C(=O)Nc1ccc(Cl)cc1)N1CCC(N2CCCCC2=O)CC1 [Example 42, (3R) 4-(2-piperidinon-1-yl)piperidin-1-yl 2N-(4-chlorophenylaminocarbonyl)-1,2,3,4-tetrahydroisoquinoline-3-carboxamide]
≥ 7.00	O=C(Nc1ccc(-n2ccccc2=O)cc1)[C@@H]1Cc2ccccc2CN1C(=O)Nc1ccc(Cl)cc1 [Example 37, (3S)N-[4-(2-pyridon-1-yl)phenyl]-2N-(4-chlorophenylaminocarbonyl)-1,2,3,4-tetrahydroisoquinoline-3-carboxamide]
≥ 7.00	CN1CCCN(c2ccc(NC(=O)[C@H]3Cc4ccccc4CN3C(=O)Nc3ccc(Cl)cc3)c(F)c2)CC1 [Example 35, (3R) N-[4-(4-methyl-homopiperazinyl)-2-fluorophenyl]-2N-(4-chlorophenylaminocarbonyl)-1,2,3,4-tetrahydroisoquinoline-3-carboxamide]

More lines, now with the values behind:

Compound	pIC50
O=C(Nc1ccc(N2CCOCC2=O)cc1)C1c2ccccc2CN1C(=O)Nc1ccc(Cl)cc1 (stereo not drawn) [Example 31, N-[4-(3-oxo-morpholin-4-yl)phenyl]-2N-(4-chlorophenylaminocarbonyl)-2,3-dihydro-1H-isoindole-1-carboxamide]	≥ 7.00
O=C(Nc1ccc(C(=O)N2CCSC2)cc1)C1Cc2ccccc2CN1C(=O)Nc1ccc(Cl)cc1 (stereo not drawn) [Example 15, N-[4-(3-thiazolidinylcarbonyl)phenyl]-2N-(4-chlorophenylaminocarbonyl)-1,2,3,4-tetrahydroisoquinoline-3-carboxamide]	≥ 7.00
CN1CCN=C1c1ccc(NC(=O)[C@H]2Cc3ccccc3CN2C(=O)Nc2ccc(Cl)cc2)cc1 [3(R), (3R)-N-[4-(1-methyl-4,5-dihydro-1H-imidazol-2-yl)phenyl]-2N-(4-chlorophenylaminocarbonyl)-1,2,3,4-tetrahydroisoquinoline-3-carboxamide]	≥ 7.00
COc1cc2c(cc1OC)CN(C(=O)Nc1ccc(Cl)cc1)[C@H](C(=O)Nc1ccc(C(=N)N(C)C)cc1)C2 [Example 23, (3S)-N-[4-(dimethylaminoimino)phenyl]-2N-(4-chlorophenylaminocarbonyl)-6,7-diemthoxy-1,2,3,4-tetrahydroisoquinoline-3-carboxamide]	≤ 6.30
COc1cc2c(cc1OC)CN(C(=O)Nc1ccc(Cl)cc1)[C@H](C(=O)Nc1ccc(C3=NCCN3C)cc1)C2 [Example 21, (3S)-N-[4-(1-methyl-4,5-dihydro-1H-imidazol-2-yl)phenyl]-2N-(4-chlorophenylaminocarbonyl)-6,7-dimethoxy-1,2,3,4-tetrahydroisoquinoline-3-carboxamide]	≤ 6.30
CN(c1ccncc1)c1ccc(NC(=O)C2Cc3ccccc3CN2C(=O)Nc2ccc(Cl)cc2)cc1 (stereo not drawn) [Example 17, N-[4-(N-methyl-N-pyridin-4-yl-amino)phenyl]-2N-(4-chlorophenylaminocarbonyl)-1,2,3,4-tetrahydroisoquinoline-3-carboxamide]	≥ 7.00
O=C(Nc1ccc(C(=O)N2CCOC2)cc1)C1Cc2ccccc2CN1C(=O)Nc1ccc(Cl)cc1 (stereo not drawn) [Example 16, N-[4-(3-oxazolidinylcarbonyl)phenyl]-2N-(4-chlorophenylaminocarbonyl)-1,2,3,4-tetrahydroisoquinoline-3-carboxamide]	≥ 7.00
CN1CCC(N2CCN(C(=O)C3Cc4ccccc4CN3C(=O)Nc3ccc(Cl)cc3)CC2)CC1 (stereo not drawn) [Example 11, 4-(1-methylpiperidin-4-yl)piperazinyl 2N-(4-chlorophenylaminocarbonyl)-1,2,3,4-tetrahydroisoquinoline-3-carboxamide]	≥ 7.00
CN1CCN=C1c1cccc(CNC(=O)C2Cc3ccccc3CN2C(=O)Nc2ccc(Cl)cc2)c1 (stereo not drawn) [Example 7, N-[3-(1-methyl-4,5-dihydro-1H-imidazol-2-yl)benzyl]-2N-(4-chlorophenylaminocarbonyl)-1,2,3,4-tetrahydroisoquinoline-3-carboxamide]	≤ 6.30
O=C(Nc1ccc(N2CCOCC2=O)cc1)C1Cc2ccccc2CN1C(=O)Nc1ccc(Cl)cc1 (stereo not drawn) [Example 14, N-[4-(3-oxo-morpholin-4-yl)phenyl]-2N-(4-chlorophenylaminocarbonyl)-1,2,3,4-tetrahydroisoquinoline-3-carboxamide]	≥ 7.00
CN(C)C(=N)c1ccc(NC(=O)C2Cc3sccc3CN2C(=O)Nc2ccc(Cl)cc2)cc1 (stereo not drawn) [Example 26, N-[4-(dimethylaminoimino)phenyl]-5N-(4-chlorophenylaminocarbonyl)-4,5,6,7-tetrahydro-thieno[3,2-c]pyridine-6-carboxamide]	≥ 7.00
CN1CCCN(c2ccc(NC(=O)[C@H]3Cc4ccccc4CN3C(=O)Nc3ccc(Cl)cc3)cc2)CC1 [Example 33, (3R) N-[4-(4-methyl-homopiperazinyl)]phenyl-2N-(4-chlorophenylaminocarbonyl)-1,2,3,4-tetrahydroisoquinoline-3-carboxamide]	≥ 7.00
O=C(Nc1ccc(C(=O)N2CCCC2)cc1)C1Cc2ccccc2CN1C(=O)Nc1ccc(Cl)cc1 (stereo not drawn) [Example 8, N-[4-(pyrrolidinylcarbonyl)phenyl]-2N-(4-chlorophenylaminocarbonyl)-1,2,3,4-tetrahydroisoquinoline-3-carboxamide]	≥ 7.00
COc1cc2c(cc1OC)CN(C(=O)Nc1ccc(Cl)cc1)[C@H](C(=O)Nc1ccc(C(=N)N3CCCC3)cc1)C2 [Example 22, (3S)-N-[4-(pyrrolidinylimino)phenyl]-2N-(4-chlorophenylaminocarbonyl)-6,7-dimethoxy-1,2,3,4-tetrahydroisoquinoline-3-carboxamide]	6.30 to 7.00
CN(C)Cc1nccn1-c1ccc(NC(=O)C2Cc3ccccc3CN2C(=O)Nc2ccc(Cl)cc2)c(F)c1 (stereo not drawn) [Example 13, N-[4-(2-dimethylaminomethyl-imidazol-1-yl)-2-fluorophenyl]-2N-(4-chlorophenylaminocarbonyl)-1,2,3,4-tetrahydroisoquinoline-3-carboxamide]	≥ 7.00
O=C(NCC1CCN(c2ccncc2)CC1)C1Cc2ccccc2CN1C(=O)Nc1ccc(Cl)cc1 (stereo not drawn) [Example 9, N-[1-(pyridin-4-yl)piperidin-4-yl]methyl-2N-(4-chlorophenylaminocarbonyl)-1,2,3,4-tetrahydroisoquinoline-3-carboxamide]	6.30 to 7.00
N=C(c1ccc(NC(=O)C2Cc3ccccc3CN2C(=O)Nc2ccc(Cl)cc2)cc1)N1CCCC1 (stereo not drawn) [Example 4, N-[4-(pyrrolidinylimino)phenyl]-2N-(4-chlorophenylaminocarbonyl)-1,2,3,4-tetrahydroisoquinoline-3-carboxamide]	≥ 7.00
CN1CCCN(c2ccc(NC(=O)[C@@H]3Cc4ccccc4CN3C(=O)Nc3ccc(Cl)cc3)cc2)CC1 [Example 34, (3S)N-[4-(4-methyl-homopiperazinyl)]phenyl-2N-(4-chlorophenylaminocarbonyl)-1,2,3,4-tetrahydroisoquinoline-3-carboxamide]	6.30 to 7.00

Source: patent US7612089B2, “Tetrahydroisoquinolines as factor Xa inhibitors” (Portola Pharmaceuticals, Inc., priority 2004, dated 2009)
